According to PMC9029089, “1,5-Disubstituted Acylated 2-Amino-4,5-dihydroimidazoles as a New Class of Retinoic Acid Receptor–Related Orphan Receptor (ROR) Inhibitors” (International Journal of Molecular Sciences, 2022):
Where two headings read alike, the source gives them in different places.

Experiments:
Assay type in all cases: cell-based
RORγ [1] = target: T1, RORγ (Mus musculus, UniProt P51450); assay: Gal4-RORγ-LBD UAS-luciferase reporter assay in TRex-CHO-K1 cells (doxycycline-stimulated); settings: for selectivity towards RORγ over RORα and RORβ: from IC50 values in reporter cells
T1 construct: mRORγ (Pro-261-end); expressed in transfected cells
T1 sequence (P51450 261-516 limits assumed): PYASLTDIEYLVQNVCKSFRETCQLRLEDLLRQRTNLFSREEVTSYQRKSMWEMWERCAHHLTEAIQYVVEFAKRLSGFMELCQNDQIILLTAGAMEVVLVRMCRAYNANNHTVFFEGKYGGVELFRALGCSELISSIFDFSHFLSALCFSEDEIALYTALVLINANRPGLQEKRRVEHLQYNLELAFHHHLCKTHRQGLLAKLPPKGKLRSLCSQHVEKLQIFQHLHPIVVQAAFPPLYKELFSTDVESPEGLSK
Description: (§1) The Gal4-DBD-ROR-LBD fusion proteins were subcloned in the pcDNA4/TO expression vector (Thermo Scientific) and transfected into TRex-CHO-K1 cells (Thermo Scientific) for tetracycline-controlled expression of the corresponding ROR proteins. Transfected cells were selected with hygromycin and Zeocin and individual clones for each of the Gal4-RORγ, Gal4-RORα, and Gal4-RORβ cell lines were isolated using a standard serial dilution protocol. Clones with the highest doxycycline-dependent stimulation of luciferase activity were selected for all functional experiments.
(§2) For screening FIU libraries, cells were resuspended in Ham’s F-12 assay medium containing 2% charcoal-treated FBS and no selection drugs. […] Cells were allowed to attach for 2 h, followed by compound treatment and stimulation with 20 ng/mL doxycycline for an additional 16–20 h. Appropriate solvent controls, negative controls with no doxycycline, and blanks with no cells were included in every plate. Prior to measuring luciferase activity, 6 µL of 0.15 mg/mL resazurin (Cayman Chemical) in PBS were added and cells were incubated for 1 h at 37 °C. Fluorescence intensity was detected at 545 nm excitation/590 nm emission using a CLARIOstar reader (BMGLabtech) as a measure of cell viability, to identify any potential cytotoxic effect of test compounds and mixtures.
(§3) Luminescence was normalized by the fluorescence intensity and the percentage of inhibition was calculated with respect to control cells stimulated with doxycycline in the presence of solvent control (0.1% DMF). All primary screens with individual compounds were performed in triplicate with a final concentration of 5 µg/mL. […] IC50 values were calculated using GraphPrism (GraphPad software).

RORα = target: T2, RORα (Homo sapiens, UniProt P35398); assay: Gal4-RORα-LBD UAS-luciferase reporter assay in TRex-CHO-K1 cells (doxycycline-stimulated)
T2 construct: hRORα (Pro-211-end); expressed in transfected cells
T2 sequence (P35398 266-523): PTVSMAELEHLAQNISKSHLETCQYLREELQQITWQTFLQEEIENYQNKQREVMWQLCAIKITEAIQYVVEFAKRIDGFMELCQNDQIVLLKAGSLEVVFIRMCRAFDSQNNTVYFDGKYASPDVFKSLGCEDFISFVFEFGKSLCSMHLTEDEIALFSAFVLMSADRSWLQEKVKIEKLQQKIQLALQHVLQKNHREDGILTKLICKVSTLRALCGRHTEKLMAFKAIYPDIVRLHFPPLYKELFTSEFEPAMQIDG
Description: as §1, §2, §3

RORβ = target: T3, RORβ (Rattus norvegicus, UniProt P45446); assay: Gal4-RORβ-LBD UAS-luciferase reporter assay in TRex-CHO-K1 cells (doxycycline-stimulated)
T3 construct: rRORβ (Pro 205-end); expressed in transfected cells
T3 sequence (P45446 205-459 isoform P45446-1): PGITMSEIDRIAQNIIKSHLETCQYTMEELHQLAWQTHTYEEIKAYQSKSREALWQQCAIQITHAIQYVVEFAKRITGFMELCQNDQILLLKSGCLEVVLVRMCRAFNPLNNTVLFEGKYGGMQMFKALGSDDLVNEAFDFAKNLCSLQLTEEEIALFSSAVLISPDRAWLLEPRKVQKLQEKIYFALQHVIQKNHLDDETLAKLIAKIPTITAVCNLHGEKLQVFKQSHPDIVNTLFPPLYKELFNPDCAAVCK
Description: To investigate the transcriptional activity of all three RORs, we generated stable cell lines expressing an UAS-driven luciferase reporter together with the corresponding Gal4-DNA binding domain fused to the ligand binding domains (LBDs) of mRORγ (Pro-261-end), hRORα (Pro-211-end), or rRORβ (Pro 205-end). The Gal4-DBD-ROR-LBD fusion proteins were subcloned in the pcDNA4/TO expression vector (Thermo Scientific) and transfected into TRex-CHO-K1 cells (Thermo Scientific) for tetracycline-controlled expression of the corresponding ROR proteins. Transfected cells were selected with hygromycin and Zeocin and individual clones for each of the Gal4-RORγ, Gal4-RORα, and Gal4-RORβ cell lines were isolated using a standard serial dilution protocol. Clones with the highest doxycycline-dependent stimulation of luciferase activity were selected for all functional experiments. All cell lines were maintained in complete Ham’s F12 medium containing 10% fetal bovine serum (FBS), 10 µg/mL blasticidine, 100 µg/mL hygromycin, and 100 µg/mL Zeocin and were used within 2 months of culture without any loss of doxycycline-dependent stimulation of luciferase activity.
For screening FIU libraries, cells were resuspended in Ham’s F-12 assay medium containing 2% charcoal-treated FBS and no selection drugs. Ten thousand cells per well were seeded in 30 µL of assay medium in 384 white plates with clear bottom (Greiner). Cells were allowed to attach for 2 h, followed by compound treatment and stimulation with 20 ng/mL doxycycline for an additional 16–20 h. Appropriate solvent controls, negative controls with no doxycycline, and blanks with no cells were included in every plate. Prior to measuring luciferase activity, 6 µL of 0.15 mg/mL resazurin (Cayman Chemical) in PBS were added and cells were incubated for 1 h at 37 °C. Fluorescence intensity was detected at 545 nm excitation/590 nm emission using a CLARIOstar reader (BMGLabtech) as a measure of cell viability, to identify any potential cytotoxic effect of test compounds and mixtures. Following the resazurin assay, the medium was removed and 20 µL of BriteLite-Plus luciferase reagent (Perking Elmer) were added; luminescence was measured in a CLARIOstar reader using a 384 aperture spoon and a 0.1 sec measuring time interval.
as §3

RORγ [2] = target: T1, RORγ; assay: Gal4-RORγ-LBD UAS-luciferase reporter assay in TRex-CHO-K1 cells (doxycycline-stimulated); settings: for inhibition at 4 µM: T-REx-CHO-K1, library 2520, RORγ cells, read-out: % Inhibition at 4 μM (N=3); for % Inhibition at 4 μM (N=3): library 2520, RORγ cells
[3] = IC50 (μM) (N=4) RORγ, individual controls of library 1295, second confirmatory dose response, Figure 2
[4] = T-REx-CHO-K1, read-out: % Inhibition RORγ 5 μg/ml
[5] = IC50 (μM) (N=4) RORα, individual controls of library 1295, second confirmatory dose response, Figure 2
[6] = IC50 (μM) (N=4) RORβ, individual controls of library 1295, second confirmatory dose response, Figure 2
[7] = T-REx-CHO-K1, individual controls 1295.201-307, 5 μg/ml, triplicate, read-out: % Inhibition RORγ 5 μg/ml
[8] = individual controls of library 1295, second confirmatory dose response, Figure 2
[9] = IC50 (μM, N=4) ROR-Gamma, library 2520
[10] = RORγ : IC50, Figure 6, confirmatory experiment, N = 4
[11] = IC50 (μM, N=4) ROR-Alpha, library 2520
[12] = IC50 (μM, N=4) ROR-Beta, library 2520
[13] = read-out: IC50 (μM, N=4) ROR-Gamma, library 2520
[14] = read-out: IC50 (μM, N=4) ROR-Alpha, library 2520
[15] = read-out: IC50 (μM, N=4) ROR-Beta, library 2520

| IC50 (RORγ [1]; [3]) [µM] | inhibition at 5 µg/mL (RORγ [1]; [4]) [%] | IC50 (RORα; [5]) [µM] | IC50 (RORβ; [6]) [µM] | inhibition at 5 µg/mL (RORγ [1]; [7]) [%] | IC50 (RORγ [1]; [8]) [µM] | Compound | further results |
| --- | --- | --- | --- | --- | --- | --- | --- |
|  |  | 12.7 ± 0.4 | 12.8 ± 2.7 | 83.1 | 7 ± 2.3 | O=C(CCc1ccccc1)NC1=NC[C@H](Cc2ccccc2)N1CCc1ccccc1 [1295.289] |  |
| 5.9 ± 3.3 | 84.6 | 9 ± 0.2 | 9.3 ± 4.9 |  |  | O=C(Cc1ccccc1)NC1=NC[C@H](Cc2ccccc2)N1CCC1CC2CCC1C2 (stereo partly shown) [1295.270] |  |
|  |  | 10.3 ± 3.7 | 10.4 ± 0.7 | 82.8 | 6.6 ± 1.4 | O=C(CCC1CCCCC1)NC1=NC[C@H](Cc2ccccc2)N1CCc1ccccc1 [1295.305] |  |
|  |  | 10.2 ± 0.4 | 12.3 ± 0.8 | 82.8 | 8.7 ± 2 | O=C(CCCC1CCCCC1)NC1=NC[C@H](Cc2ccccc2)N1CCc1ccccc1 [1295.300] |  |
|  |  | 10.1 | 12.1 | 91.5 | 5 | O=C(Cc1ccccc1)NC1=NC[C@H](Cc2ccccc2)N1CCc1ccc(-c2ccccc2)cc1 [1295.248] | selectivity towards RORγ over RORα and RORβ (RORγ [1]): two-fold selectivity |

More lines, now with the values behind:

| Compound | IC50 (RORγ [1]; [3]) [µM] | inhibition at 5 µg/mL (RORγ [1]; [4]) [%] | IC50 (RORα; [5]) [µM] | IC50 (RORβ; [6]) [µM] | inhibition at 5 µg/mL (RORγ [1]; [7]) [%] | IC50 (RORγ [1]; [8]) [µM] | further results |
| --- | --- | --- | --- | --- | --- | --- | --- |
| O=C(CC1CCCCC1)NC1=NC[C@H](Cc2ccccc2)N1CCc1ccccc1 [1295.299] | 8.4 ± 1.5 | 89.6 | 14.1 ± 1.6 | 12.7 ± 4.2 |  |  |  |
| O=C(NC1=NC[C@H](Cc2ccccc2)N1CCc1ccccc1)C1(c2ccccc2)CC1 [1295.272] |  |  |  | 14.2 ± 3.6 | 96 | 8 ± 1 | IC50 (RORα; [8]): 9.8 ± 0.5 µM |
| CCOc1ccc(C[C@H]2CN=C(NC(=O)C(CC)c3ccccc3)N2CCC2CC3CCC2C3)cc1 (stereo partly shown) [2520.47] |  |  |  |  |  |  | IC50 (RORγ [1]; [9]): 4.68 ± 0.2 µM; IC50 (RORγ [1]; [10]): 4.6 ± 0.2 µM; IC50 (RORα; [11]): 7.2 ± 0.4 µM; IC50 (RORβ; Figure 6, confirmatory experiment, N = 4, read-out: RORβ : IC50): 6.6 ± 0.4 µM; IC50 (RORβ; [12]): 6.67 ± 0.4 µM; inhibition at 4 µM (RORγ [2]): 51.3% |
| CCOc1ccc(C[C@H]2CN=C(NC(=O)C(C)C)N2CC2CCCCC2)cc1 [2520.48] |  |  |  |  |  |  | IC50 (RORγ [1]; [13]): 9.27 ± 0.4 µM; IC50 (RORα; [14]): 9.61 ± 0.5 µM; IC50 (RORβ; [15]): 6.57 ± 0.5 µM; % Inhibition at 4 μM (N=3) (RORγ [2]): 69.2% |
| CCC(C(=O)NC1=NC[C@H](Cc2ccccc2)N1CCC(C)c1ccccc1)c1ccccc1 (stereo partly shown) [2520.31] |  |  |  |  |  |  | IC50 (RORγ [1]; [9]): 3.95 ± 0.3 µM; IC50 (RORγ [1]; [10]): 3.9 ± 0.3 µM; IC50 (RORα; [11]): 6.82 ± 0.4 µM; IC50 (RORα; RORα : IC50, Figure 6, confirmatory experiment, N = 4): 6.8 ± 0.4 µM; IC50 (RORβ; [12]): 5.5 ± 0.3 µM; inhibition at 4 µM (RORγ [2]): 70.5% |
| CCOc1ccc(CC2CN=C(NC(=O)Cc3ccc(OC)cc3)N2CCC(C)c2ccccc2)cc1 (mixture of isomers) [2520.46] |  |  |  |  |  |  | IC50 (RORγ [1]; [13]): 5.31 ± 0.2 µM; IC50 (RORα; [14]): 5.82 ± 0.3 µM; IC50 (RORβ; [15]): 5.46 ± 0.3 µM; % Inhibition at 4 μM (N=3) (RORγ [2]): 67.3% |
| CCOc1ccc(C[C@H]2CN=C(NC(=O)Cc3ccc(OC)cc3)N2CC2CCCCC2)cc1 [2520.42] |  |  |  |  |  |  | IC50 (RORγ [1]; [13]): 5.17 ± 0.8 µM; IC50 (RORα; [14]): 5.4 ± 0.4 µM; IC50 (RORβ; [15]): 5.21 ± 0.3 µM; % Inhibition at 4 μM (N=3) (RORγ [2]): 96.5% |
| O=C(Cc1ccccc1)NC1=NC[C@H](Cc2ccccc2)N1CCC1CCCCC1 [1295.261] | 17.2 ± 1.6 | 95.9 | 15.3 ± 1.7 | 17.1 ± 2.6 |  |  |  |
| CC(C)(C)C(=O)NC1=NC[C@H](Cc2ccccc2)N1CCc1ccccc1 [1295.298] |  |  |  | 10.8 ± 0.4 | 94.7 | 10 ± 1.5 | IC50 (RORα; [8]): 9.6 ± 0.3 µM |
| CC(CC(=O)NC1=NC[C@H](Cc2ccccc2)N1CCc1ccccc1)c1ccccc1 (stereo partly shown) [1295.274] | 4.8 | 105 | 7.4 ± 0.2 | 6.7 ± 0.3 |  |  | selectivity towards RORγ over RORα and RORβ (RORγ [1]): slightly more selective than RORα/β |
| O=C(CC1CC2CCC1C2)NC1=NC[C@H](Cc2ccccc2)N1CCc1ccccc1 (stereo partly shown) [1295.307] | 5.8 ± 0.4 | 101 | 8.9 ± 0.4 | 7.6 ± 0.3 |  |  |  |
| O=C(Cc1ccccc1)NC1=NC[C@H](Cc2ccccc2)N1CCCC1CCCCC1 [1295.268] |  | 103 | 10.1 ± 0.4 | 10.4 ± 0.8 |  | 6.2 ± 0.6 |  |
| CC1CCC(CN2C(NC(=O)Cc3ccccc3)=NC[C@@H]2Cc2ccccc2)CC1 (stereo partly shown) [1295.269] | 5.8 ± 0.6 | 104 | 9 ± 0.3 | 9.3 ± 0.8 |  |  |  |
| CC1CCC(C(=O)NC2=NC[C@H](Cc3ccccc3)N2CCc2ccccc2)CC1 (stereo partly shown) [1295.306] | 9.5 ± 2.6 | 97.8 | 9.7 ± 1.6 | 9.4 ± 0.6 |  |  |  |
